# Results from patent US10675293B2, “Nucleoside agents for the reduction of the deleterious activity of extended nucleotide repeat containing genes” (The Board of Trustees of the Leland Stanford Junior …, priority 2015, dated 2020).
# Legend:
# [1] = biological target: T1, Supt4h-GL1 / NGN-GL2 interaction (Homo sapiens, UniProt O00267+P63272); test: Split Gaussia luciferase complementation assay in M2-8 (HEK-293) cells; type: cell-based; conditions: M2-8 cells, RSL1 150 nM
# T1 construct: the amino terminal domain of Supt5h (NGN); expressed in transfected cells; host or cells: M2-8, a clone of 293-R1 (HEK 293), RSL1-induced
# Method: ii: M2-8 is a cloned 293-R1 cell which can inducibly express pNEBR-X1-Supt4h-G1-NGN-G2 by addition of RSL1. Two point mutations (M431 and M1101) were introduced to the GL1 and GL2 for better stability according to “A high-throughput cell-based Gaussia luciferase reporter assay for identifying modulators of fibulin-3 secretion” published on J Biomol Screen. 2013 July; 18(6):647-58. The cell line was selected by Hygromycin.
# Plasmids harboring the Gluc1 and Gluc2 were co-transfected in a 1:1 ratio into 293-R1 cells plated on tissue culture treated 24-well plates using Lipofectamine 2000 according to the manufacturer's instruction. […] Signal intensities (integrated 100 ms) were read on Tecan Infinite M200 or M1000.
# Human genes encoding the Supt4h protein or the amino terminal domain of Supt5h (NGN) were each fused with genes that encode subunits (GLuc1 or GLuc2) of Gaussia princeps luciferase to generate Supt4h-GL1 and NGN-GL2. […] The Gausssia luciferase substrate, native Coelenterazine, was added at a final concentration of 10 μg/ml to extracts of cells containing the indicated constructs and the magnitude of luminescence was determined using a luminometer (Tecan Infinite M200) that detects light emitted by luciferase. […] The luciferase activity that is detected is very specific and results only from interaction between the Supt4h and NGN. […]
# [2] = system: total Huntingtin protein; test: Western blot of total HTT in Huntington's disease patient iPSC ND36999; type: cell-based, human; conditions: iPSC with 180 CAG repeats, 24 hr
# Method: Cell samples were lysed in 30 mM Tris-HCl, pH 8.0, 5 mM NaCl, 0.1% Triton X-100 for 10 min on ice. The supernatants from spinning (14 k rpm for 10 min) were collected. The protein concentrations were determined by BCA assay (Pierce, ThermoFisher). Equal amounts of protein were loaded onto 4-12% gel. After electrophoresis, the gels were transferred to nitrocellulose membranes by wet transfer at 35V for 16 hr. The protein level of mutant HTT, total HTT and tubulin were determined by immunoblotting with anti-poly Glutamine (MAB1574 from Millipore), anti-Huntingtin protein (MAB2166 from Millipore) and anti-alpha tubulin (AJ1034a from ABGENT). Blots were imaged on a Li-Cor Odyssey infrared imager. The bands intensities were determined by Li-Cor Odyssey software.
# To test whether the nucleoside 6-Azauridine (HD101) and (−)-6-Azauridine 2′,3′,5′-triacetate (HD106) can affect the expression of proteins with long polyQ domains, one iPSC (induced pluripotent stem cell) line ND36999, which was derived from a Huntington's disease patient who carries one allele of mutant htt gene with 180 CAG repeats, was purchased from the Coriell Institute. The iPSCs were plated into a 24-well plate coated with Matrigel. […] Cells were lysed and the protein concentrations were determined by BCA assay. […] The image (FIG. 10) was taken and the quantification was made by Li-Cor Odyssey imaging system.
# [3] = system: mutant Htt gene; test: RT-PCR of Htt mRNA in Hdh Q111/Q111 striatal cells; type: cell-based, mouse; conditions: compared to mock control
# Method: Tet-on HeLa cells (Clontech Laboratories), and stable line 2-PN4 and 21-VS were cultured in DMEM (Gibco) supplemented with 10% Tet-off fetal bovine serum (Gibco) at 37° C. with 5% CO2. Hdh Q7/Q7 (mouse), Hdh Q111/Q111 (mouse) were cultured in DMEM (HyClone) supplemented with 10% fetal bovine serum at 33° C. with 5% C02.
# Total RNA was extracted from murine neuronal cells using TRI Reagent (Sigma). For cDNA conversion, 2 μg of total RNA was mixed with 5 μM random primer, 5 μM SnRNA U6 rt-PCR primer and 500 μM dNTPs, incubated at 65° C. for 5 min and then chilled on ice. After addition of First-Strand Buffer, DTT (Cf=10 mM) and 1 μl reverse transcriptase (Invitrogen), the reaction was carried out at 42° C. for 1 hr. Equal volumes of cDNA products were PCR amplified and resolved on 2.5% agarose gels to determine the abundance of Htt transcripts after normalization with U6 or 18S ribosomal RNA.
smiles,measurement,setting,value
"O=c1cnn([C@@H]2O[C@H](CO)[C@@H](O)[C@H]2O)c(=O)[nH]1 [HD101, 6-Azauridine]",inhibition of Supt4h/NGN interaction (luciferase activity),[1],inhibiting the interaction between Supt4h/NGN
same,total Huntingtin protein expression level,[2],little effect
same,Htt mRNA transcribed from mutant allele,[3],down-regulates the expression of mutant Htt gene
